Reference: US6376497B1, “Antifungal azole derivatives having a fluorinated vinyl group and process for preparing same” (Korea Research Institute of Chemical Technology, priority 1999, dated 2002)
In brackets after ≈: the same amount, converted by molar mass. Like-named read-outs stand apart in the source and are kept apart here.

What was measured:
[1] = system: Trichophyton mentagrophytes B. 32663; assay: In vitro antifungal activity, microbroth dilution MIC; format: cell-based; settings: Trichophyton mentagrophytes
Outline: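 Broth microdilution adapted from NCCLS M27, in RPMI-1640 with 0.165 M MOPS, pH 7.0. Yeast or mould inoculum at 2×10^3 CFU/ml was mixed 1:1 with DMSO-derived compound solutions (200 to 0.10 μg/ml before mixing) and incubated at 35 °C for 4 to 48 h. MIC was the concentration showing no growth.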

mouse = settings: oral; cited from earlier work
[2] = B.32663, RPMI-1640, 35° C., 4 to 48 hours, no growth observed, read-out: Minimal inhibitory concentration(MIC), T. mentagrophytes B. 32663
[3] = B.32663, RPMI-1640, 35° C., no growth observed, read-out: Minimal inhibitory concentration (MIC), T. mentagrophytes B. 32663
[4] = T. mentagrophytes B. 32663, RPMI-1640, 35° C., 4 to 48 hours, read-out: Minimal inhibitory concentration (MIC)

Compound | MIC [1, 2] | MIC [1, 3] | MIC [1, 4] | LD50 (mouse)
OC(Cn1cncn1)(Cn1cncn1)c1ccc(F)cc1F [fluconazole, reference compound] | 12.5 mg/L (≈ 40.8 µM) | 12.5 mg/L (≈ 40.8 µM) | 12.5 mg/L (≈ 40.8 µM) | –
CCC(C)n1ncn(-c2ccc(N3CCN(c4ccc(OCC5COC(Cn6cncn6)(c6ccc(Cl)cc6Cl)O5)cc4)CC3)cc2)c1=O (stereo not shown) [itraconazole, reference compound] | ≤ 0.1 mg/L | ≤ 0.1 mg/L | ≤ 0.1 mg/L | 320 mg/kg
